Results from patent publication US20200392150A1, “Diaryl-B-Lactam Compound and Preparation Method and Pharmaceutical Use Thereof” (Fudan University, priority 2016, published 2020).

Key:
[1] = tested on: tubulin in SKOV-3 cells; experiment: Immunofluorescent analysis of tubulin morphology; type: cell-based, human; settings: 24 h
Description: After treatment with diluent (0.2% DMSO) or tested compounds at indicated concentrations for 24 h, SKOV-3 cells were fixed with methanol, permeabilized with 0.1% Triton X-100 in PBS and blocked by goat serum. Then the cells were incubated with a-tubulin antibody at 4° C. overnight, followed by incubation with Alexa 488 labeled secondary antibody (Jackson ImmunoResearch) at RT for 1 h. After being stained with DAPI, cells were examined and photographed with a Leica SP5 co-focal fluorescence microscope.

[2] = tested on: SKOV3; experiment: In vitro cell growth inhibition assay (MTT); type: cell-based, human; settings: SK-OV-3; SKOV-3 human ovarian cancer cell line, 48 h, MTT; read-out: IC50 SKOV3
Outline: (§1)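 Following overnight adherence of 5000 cells per well, compounds or 0.2% DMSO were applied for 48 h. Medium was then swapped for 0.5 mg/mL MTT medium (4 h, 37° C), crystals dissolved in DMSO, and plates read at 540 nm.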

[3] = tested on: A2780; experiment: In vitro cell growth inhibition assay (MTT); type: cell-based, human; settings: A2780 human ovarian cancer cell line, 48 h, MTT; read-out: IC50 A2780
Outline: as §1

[4] = tested on: Hela; experiment: In vitro cell growth inhibition assay (MTT); type: cell-based, human; settings: Hela human cervical cancer cell line, 48 h, MTT; read-out: IC50 Hela
Outline: as §1

[5] = tested on: MDA-MB-231; experiment: In vitro cell growth inhibition assay (MTT); type: cell-based, human; settings: MDA-MB-231 human breast cancer cell line, 48 h, MTT; read-out: IC50 MDA-MB-231
Outline: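 5000 cells/well, overnight attachment; compounds 48 h (vehicle 0.2% DMSO); MTT 0.5 mg/mL, 4 h, 37° C; formazan in DMSO; A540. IC50 from growth inhibition rates.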

[6] = tested on: tubulin in Hela cells; experiment: Immunoblotting analysis of polymerized/depolymerized tubulin; type: cell-based, human; settings: 6 h
Description: After being treated with diluent (0.2% DMSO), tested compound, CA-4 or PTX for 6 h, Hela cells were lysed with microtubulestabilizing buffer, containing 100 mM PIPES, pH 6.8, 1 mM MgCl2, 2 mM EGTA, 0.5% NP-40, 2 M glycerol, 5 μM PTX and protease inhibitors cocktail (Roche), and the lysate was centrifuged at 15,000 rpm for 15 min. Supernatant containing depolymerized tubulin was carefully collected, whereas pellet (polymerized tubulin) was further dissolved in SDS-lysis buffer (Beyotime, China). Equal amounts of supernatant and dissolved pellet were subjected to immunoblotting analysis as described above using atubulin antibody (Proteintech).

Compound	tubulin assembly (immunofluorescence) [1]	IC50 [2] [nM]	IC50 [3] [nM]	IC50 [4] [nM]	IC50 [5] [nM]	polymerized tubulin (immunoblotting) [6]	melting point [°C]
C=C1C(=O)N(c2cc(OC)c(OC)c(OC)c2)[C@H]1c1ccc(OC)c(O)c1 [Compound 1, (S)-4-(3-hydroxy-4-methoxyphenyl)-3-methylene-1-(3,4,5-trimethoxyphenyl)azetidin-2-one]	significantly inhibit tubulin aggregation	128	143	186	234	significantly inhibit tubulin aggregation	
C=C1C(=O)N(c2cc(OC)c(OC)c(OC)c2)[C@H]1c1ccc(OC)c(Cl)c1 [Compound 39, (S)-4-(3-chloro-4-methoxyphenyl)-3-methylene-1-(3,4,5-trimethoxyphenyl)azetidin-2-one]		341	316	371	512		119 to 120
C=C1C(=O)N(c2cc(OC)c(OC)c(OC)c2)[C@H]1c1ccc(OC)c(C(=O)OC)c1 [Compound 40, (5)-methyl 2-methoxy-5-(3-methylene-4-oxo-1-(3,4,5-trimethoxyphenyl)azetidin-2-yl)benzoate]		539	281	942	479		112 to 113
C=CC(=O)Nc1cc([C@H]2C(=C)C(=O)N2c2cc(OC)c(OC)c(OC)c2)ccc1OC [Compound 42, (S)—N-(2-methoxy-5-(3-methylene-4-oxo-1-(3,4,5-trimethoxyphenyl)azetidin-2-yl)phenyl)acrylamide]		63	65	125	34		143 to 144
C=C1C(=O)N(c2cc(OC)c(OC)c(OC)c2)[C@H]1c1ccc(OC)c(NC(=O)c2ccc([N+](=O)[O-])cc2)c1 [Compound 43, (S)—N-(2-methoxy-5-(3-methylene-4-oxo-1-(3,4,5-trimethoxyphenyl)azetidin-2-yl)phenyl)-4-nitrobenzamide]		1420	931	1580	2000		234 to 235
C=C1C(=O)N(c2cc(OC)c(OC)c(OC)c2)[C@H]1c1ccc(OC)c(NS(N)(=O)=O)c1 [Compound 44, (S)—N-(2-methoxy-5-(3-methylene-4-oxo-1-(3,4,5-trimethoxyphenyl)azetidin-2-yl)phenyl)sulfamoylamide]		833	354	456	841		101 to 102
C=C1C(=O)N(c2cc(OC)c(OC)c(OC)c2)[C@H]1c1ccc(OC)c(NC(=O)C2CC2)c1 [Compound 45, (S)—N-(2-methoxy-5-(3-methylene-4-oxo-1-(3,4,5-trimethoxyphenyl)azetidin-2-yl)phenyl)cyclopropanecarboxamide]		224	148	321	197		181 to 182
C=C1C(=O)N(c2cc(OC)c(OC)c(OC)c2)[C@H]1c1ccc(OC)c(OC(C)=O)c1 [Compound 46, (S)-2-methoxy-5-(3-methylene-4-oxo-1-(3,4,5-trimethoxyphenyl)azetidin-2-yl)phenyl acetate]		104	81	116	133		122 to 123
C=C1C(=O)N(c2cc(OC)c(OC)c(OC)c2)[C@H]1c1ccc(OC)c(OCc2ccccc2)c1 [Compound 47, (S)-4-(3-(benzyloxy)-4-methoxyphenyl)-3-methylene-1-(3,4,5-trimethoxyphenyl)azetidin-2-one]		> 20000	> 20000	> 20000	> 20000		133 to 134
C=C1C(=O)N(c2ccc(OC)c(OC)c2)[C@H]1c1ccc(OC)c(O)c1 [Compound 48, (S)-1-(3,4-dimethoxyphenyl)-4-(3-hydroxy-4-methoxyphenyl)-3-methyleneazetidin-2-one]		14800	4570	> 20000	6100		74 to 75
C=C1C(=O)N(c2cccc(OC)c2)[C@H]1c1ccc(OC)c(O)c1 [Compound 51, (S)-1-(3-methoxyphenyl)-4-(3-hydroxy-4-methoxyphenyl)-3-methyleneazetidin-2-one]		1390	677	2170	1370		104 to 105
C=C1C(=O)N(c2ccc(OC)cc2)[C@H]1c1ccc(OC)c(O)c1 [Compound 52, (S)-1-(4-methoxyphenyl)-4-(3-hydroxy-4-methoxyphenyl)-3-methyleneazetidin-2-one]		> 20000	> 20000	> 20000	> 20000		180 to 181
COc1ccc([C@H]2/C(=C/C[Si](C)(C)C)C(=O)N2c2cc(OC)c(OC)c(OC)c2)cc1O [Compound 53, (S,Z)-4-(3-hydroxy-4-methoxyphenyl)-1-(3,4,5-trimethoxyphenyl)-3-(2-(trimethylsilyl)ethylidene)azetidin-2-one]		> 10000	> 10000	> 10000	> 10000		67 to 69
